Results reported in patent US20090142337A1, “Pharmaceutical Combinations of Diazole Derivatives for Cancer Treatment” (Astex Therapeutics Limited, priority 2006, published 2009).

Assays:
HCT-116 cell line = experiment: Anti-proliferative activity (Alamar Blue assay); format: cell-based, human; details: for IC50: Homo sapiens, HCT-116, read-out: HCT-116 cell proliferation IC50
Description: The anti-proliferative activities of compounds for use in the combinations of the invention can be determined by measuring the ability of the compounds to inhibition of cell growth in a number of cell lines. […] The method is based on the ability of viable cells to reduce resazurin to its fluorescent product resorufin. […] The number of viable cells is determined by Alamar Blue assay as before. Cell lines can be obtained from the ECACC (European Collection of cell Cultures).

CDK2/CyclinA = CDK2/CyclinA (Homo sapiens, UniProt P24941); experiment: Activated CDK2/CyclinA kinase inhibitory activity assay; format: biochemical
Description: The reaction is allowed to proceed for 2 to 4 hours before being stopped with an excess of ortho-phosphoric acid (5 μl at 2%). γ^33P-ATP which remains unincorporated into the histone H1 is separated from phosphorylated histone H1 on a Millipore MAPH filter plate. The wells of the MAPH plate are wetted with 0.5% orthophosphoric acid, and then the results of the reaction are filtered with a Millipore vacuum filtration unit through the wells. Following filtration, the residue is washed twice with 200 μl of 0.5% orthophosphoric acid. Once the filters have dried, 20 μl of Microscint 20 scintillant is added, and then counted on a Packard Topcount for 30 seconds.

[1] = Vapour sorption/desorption analysis; format: physicochemical; details: 0 to 90% RH stepwise, 25 °C, total upon equilibration at 90% RH
Description: Crystals of 4-(2,6-dichlorobenzoylamino)-1H-pyrazole-3-carboxylic acid (1-methanesulphonyl-piperidin-4-yl)-amide prepared by the recrystallisation method of Example 5 Step 8 were subjected to vapour sorption/desorption analysis in order to test for the propensity of this sample to form a hydrated state.
Approximately 20 mg of sample was placed into a wire-mesh vapour sorption balance pan and loaded into an ‘IgaSorp’ vapour sorption balance (Hiden Analytical Instruments) held at 25+/−0.1° C. The sample was then dried by maintaining a 0% humidity environment (using mass flow control apparatus) until no further weight change was recorded. Subsequently, the sample was then subjected to a ramping profile from 0-90% relative humidity (% RH) at 10% RH increments, maintaining the sample at each step until equilibration had been attained (99.5% step completion).
Upon reaching equilibration, the % RH within the apparatus was ramped to the next step and the equilibration procedure repeated. After completion of the sorption cycle, the sample was then dried using the same procedure. The weight change during the sorption/desorption cycles was then monitored, allowing for the hygroscopic nature of the sample to be determined.

[2] = system: human tumour derived cell lines; experiment: Xenograft studies; format: in vivo, nude mice; details: dosed orally
Source text: These biomarkers include suppression of phosphorylation of substrates of the cyclin dependent kinases e.g. retinoblastoma protein.

[3] = Determination of oral bioavailability; format: in vivo, balb/c mice; details: mice, oral route (5 mg/kg PO vs 1 mg/kg IV)
Description: The oral bioavailability of the compounds for use in the combinations of the invention may be determined as follows.
The test compound is administered as a solution both I.V. and orally to balb/c mice at the following dose level and dose formulations; • 1 mg/kg IV formulated in 10% DMSO/90% (2-hydroxypropyl)-β-cyclodextrin (25% w/v); and • 5 mg/kg PO formulated in 10% DMSO/20% water/70% PEG200.
At various time points after dosing, blood samples are taken in heparinised tubes and the plasma fraction is collected for analysis. The analysis is undertaken by LC-MS/MS after protein precipitation and the samples are quantified by comparison with a standard calibration line constructed for the test compound. The area under the curve (AUC) is calculated from the plasma level vs time profile by standard methods. The oral bioavailability as a percentage is calculated from the following equation: […]

CML patients = details: CML blast phase; cited from earlier work
PKG = details: cited from earlier work
PKA = PKA (Homo sapiens, UniProt P17612); details: cited from earlier work
OVCAR-3 tumour cells = details: concentrations of 50 and 100 microM; cited from earlier work

For `CS(=O)(=O)N1CCC(NC(=O)c2n[nH]cc2NC(=O)c2c(F)cccc2F)CC1` [reference compound], the IC50 (HCT-116 cell line) was 740 nM and the “selectivity for CDK inhibition over GSK3β” value (CDK2/CyclinA) was ~6 fold.
For `CS(=O)(=O)N1CCC(NC(=O)c2n[nH]cc2NC(=O)c2c(Cl)cccc2Cl)CC1` [Example 1, 4-(2,6-dichloro-benzoylamino)-1H-pyrazole-3-carboxylic acid (1-methanesulphonyl-piperidin-4-yl)-amide], the “more potent anti-proliferative effect on human colon cancer HCT-116 cell line compared to difluoro-analogue” value (HCT-116 cell line) was 6-7 fold, the IC50 (HCT-116 cell line) was 110 nM and the “weight increase on vapour sorption” value [1] was 0.24%. The “tumour biomarkers (phosphorylation of CDK substrates e.g. retinoblastoma protein)” value [2] was “inhibition of the tumour biomarkers”, the “tumour growth in xenografts” value ([2]; xenografts implanted sub-cutaneously) was “inhibition of tumour growth” and the bioavailability ([3]; balb/c, mouse, plasma, oral, 5 mg/kg) was 40 to 50%. The oral bioavailability [3] was 30-100%.
For `Cc1ccc(NC(=O)c2ccc(CN3CCN(C)CC3)cc2)cc1Nc1nccc(-c2cccnc2)n1` [imatinib], the duration of remissions (CML patients) is listed as 2-6 months.
For `O=S(=O)(NCCNCC=C(c1ccccc1)c1ccccc1)c1cccc2cnccc12` [NL-71-101], the IC50 (PKG) is given as 36 µM, the IC50 (PKA) is given as 9 µM and the “apoptosis in OVCAR-3 tumour cells” value (OVCAR-3 tumour cells) is given as “induced apoptosis”.
